Test results taken from patent US7615543B2, “Treatment and prevention of tissue damage” (Pentraxin Therapeutics Limited, priority 2002, dated 2009).
Read-outs that look alike come from different tables or passages of the source. Values belong to the compound of their own block, whether it stands above or below them.

Legend:
[1] = molecular target: T1, CRP (Homo sapiens, UniProt P02741); experiment: Gel filtration (molecular sieve) chromatography of CRP molecular assembly; type: binding; details: 10 fold molar excess of drug
T1 sequence (P02741 19-224): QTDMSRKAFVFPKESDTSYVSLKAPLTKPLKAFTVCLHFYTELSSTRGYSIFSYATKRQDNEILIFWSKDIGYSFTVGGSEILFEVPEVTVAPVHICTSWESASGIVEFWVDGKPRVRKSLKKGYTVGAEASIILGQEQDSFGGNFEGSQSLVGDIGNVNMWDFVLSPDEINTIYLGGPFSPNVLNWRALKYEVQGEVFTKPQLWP
Excerpt: The ligand binding sites on each of the 5 protomers in the CRP molecule are all on the same face of the disc-like pentameric assembly of the native protein.

[2] = molecular target: T1, CRP
[3] = molecular target: T2, SAP (Homo sapiens, UniProt P02743); set-up: human SAP expressed in human SAP transgenic mice; host or cells: human SAP transgenic mice; circulation in vivo; details: cited from earlier work
T2 sequence (P02743 20-223): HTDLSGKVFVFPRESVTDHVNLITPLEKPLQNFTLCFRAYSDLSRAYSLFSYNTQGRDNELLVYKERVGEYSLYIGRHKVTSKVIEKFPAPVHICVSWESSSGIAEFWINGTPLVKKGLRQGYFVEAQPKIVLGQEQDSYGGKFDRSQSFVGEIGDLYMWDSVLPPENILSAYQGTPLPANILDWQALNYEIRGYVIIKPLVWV

[4] = molecular target: T2, SAP; experiment: Isothermal calorimetry of CPHPC with SAP; details: read-out: affinity of binding, SAP and CPHPC
Excerpt: This phenomenon contrasts sharply with the behaviour in vivo of the closely related molecule, serum amyloid P component (SAP), the other member of the human pentraxin protein family. SAP shares with CRP the homopentameric structure consisting of 5 identical protomers non-covalently associated in a disc like configuration, with a single calcium-dependent ligand binding site on one face of each subunit. […] The handling of aggregated human SAP in vivo may thus differ markedly from that of aggregated CRP. […] Thus compounds that are both bound by CRP with higher affinity and that cross-link it in more avid stable complexes, may cause accelerated clearance from the plasma in vivo.

[5] = molecular target: T3, mouse SAP (Mus musculus, UniProt P12246); details: CPHPC administered to mice; cited from earlier work
T3 construct: host or cells: mice, endogenous circulating SAP
T3 sequence (P12246 21-224): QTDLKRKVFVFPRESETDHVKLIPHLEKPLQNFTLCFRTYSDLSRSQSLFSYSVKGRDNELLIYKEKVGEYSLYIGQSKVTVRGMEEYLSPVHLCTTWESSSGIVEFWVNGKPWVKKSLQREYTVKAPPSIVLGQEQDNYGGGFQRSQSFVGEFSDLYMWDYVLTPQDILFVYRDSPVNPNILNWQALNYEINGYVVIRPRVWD

Molecular assembly of CRP [1]: Single pentamers
Compound: C[N+](C)(C)CCOP(=O)([O-])O [phosphocholine]

reduction of MIRA CRP concentration ([2]; CRP 100 mg/l, SAP 100 mg/l (~4 μM), DPHPC 400 μM): 58% | reduction of MIRA CRP concentration ([2]; CRP 100 mg/l, SAP 100 mg/l (~4 μM), DPHPC 2 mM): 89% | reduction of MIRA CRP concentration ([2]; CRP 100 mg/l, SAP 100 mg/l (~4 μM), DPHPC 4 mM): 99% | effect on apparent CRP concentration in MIRA assay ([2]; added to isolated pure CRP, no SAP): slightly reduces | reduction of MIRA CRP value ([2]; pure CRP 100 mg/l (~4 μM), DPHPC 400 μM, no SAP): no effect | reduction of MIRA CRP value ([2]; pure CRP 100 mg/l (~4 μM), DPHPC 4 mM, no SAP): 91% | reduction of MIRA CRP value ([2]; second experiment: ~4 μM CRP, 1 mM DPHPC, SAP 400 nM): 61% | reduction of MIRA CRP value ([2]; second experiment: ~4 μM CRP, 1 mM DPHPC, SAP 800 nM): 61% | reduction of MIRA CRP value ([2]; second experiment: ~4 μM CRP, 1 mM DPHPC, SAP 2 μM): 73% | reduction of MIRA CRP value ([2]; second experiment: ~4 μM CRP, 1 mM DPHPC, SAP about 4 μM): 85% | reduction of MIRA CRP concentration ([2]; second experiment: ~4 μM CRP, 1 mM DPHPC, no SAP): 62% | reduction of MIRA CRP value ([2]; whole serum, SAP and CRP both ~4 μM, 4 mM DPHPC): 44% | enhancement by SAP of the effect of DPHPC alone in MIRA ([2]; whole serum, SAP concentrations lower than 2 μM, 4 mM DPHPC): no enhancement | reduction of MIRA CRP value ([2]; whole serum, ~4 μM CRP, 2 μM SAP, 4 mM DPHPC): 29% | reduction of CRP detectable in MIRA assay ([2]; whole serum, ~4 μM CRP, 4 mM DPHPC, no added SAP): 19%
Compound: D-Pro-hexanoyl-phosphocholine [DPHPC]

Kd [4]: 10 nM
Compound: O=C(O)[C@H]1CCCN1C(=O)CCCCC(=O)N1CCC[C@@H]1C(=O)O [CPHPC, (R)-1-[6-[(R)-2-Carboxy-pyrrolidin-1-yl]-6-oxo-hexanoyl]pyrrolidine-2-carboxylic acid]
effect on human SAP in vivo ([3]; human SAP transgenic mice): dramatically clears | clearance of SAP-CPHPC complexes from the circulation in vivo ([3]; pairs of SAP molecules cross linked by CPHPC): very rapidly cleared | effect on clearance of mouse SAP in vivo [5]: does not accelerate clearance
